Laboratory results reported in PubChem BioAssay AID328 (DTP/NCI, 2004).
Where “and” joins values, the source holds several entries; their conditions need not be identical. Equal entries are not always repeated. Inconclusive results and toxic doses are left out.

System: BDF1 mice, P388 leukemia ip, median survival T/C
Experiment: NCI In Vivo Anticancer Drug Screen. Data for tumor model P388 Leukemia (intraperitoneal) in B6D2F1 (BDF1) mice
Conditions: endpoint: median survival time, higher = longer survival
Procedure, shortened: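 Steps: implant the tumour, treat one group with compound and another with vehicle, record survival, then divide treated by control.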

[1] = dose: 50.0 mg/kg/injection, schedule: Q01DX009 (ip), vehicle: saline with Tween-80
[2] = dose: 100.0 mg/kg/injection, schedule: Q01DX009 (ip), vehicle: saline with Tween-80
[3] = dose: 200.0 mg/kg/injection, schedule: Q01DX009 (ip), vehicle: saline with Tween-80
[4] = dose: 25.0 mg/kg/injection, schedule: Q01DX009 (ip), vehicle: saline
[5] = dose: 50.0 mg/kg/injection, schedule: Q01DX009 (ip), vehicle: saline
[6] = dose: 100.0 mg/kg/injection, schedule: Q01DX009 (ip), vehicle: saline
[7] = dose: 100.0 mg/kg/injection, schedule: Q04DX003 (ip), vehicle: saline with Tween-80
[8] = dose: 100.0 mg/kg/injection, schedule: Q01DX009 (ip), vehicle: Klucel (hydroxypropylcellulose) (HPC)
[9] = dose: 100.0 mg/kg/injection, schedule: Q04DX003 (ip), vehicle: Klucel (hydroxypropylcellulose) (HPC)
[10] = dose: 200.0 mg/kg/injection, schedule: Q01DX009 (ip), vehicle: Klucel (hydroxypropylcellulose) (HPC)
[11] = dose: 200.0 mg/kg/injection, schedule: Q04DX003 (ip), vehicle: Klucel (hydroxypropylcellulose) (HPC)
[12] = dose: 400.0 mg/kg/injection, schedule: Q01DX009 (ip), vehicle: Klucel (hydroxypropylcellulose) (HPC)
[13] = dose: 50.0 mg/kg/injection, schedule: Q01DX009 (ip), vehicle: Klucel (hydroxypropylcellulose) (HPC)
[14] = dose: 400.0 mg/kg/injection, schedule: Q04DX003 (ip), vehicle: Klucel (hydroxypropylcellulose) (HPC)
[15] = dose: 400.0 mg/kg/injection, schedule: Q01DX009 (ip), vehicle: saline with Tween-80
[16] = dose: 12.5 mg/kg/injection, schedule: Q01DX009 (ip), vehicle: saline

For O=C(/C=C/c1ccc(OCc2ccccc2)cc1)c1ccccc1F, the T/C [1] was 96 % of control, the T/C [2] was 100 % of control and the T/C [3] was 96 % of control.

C[n+]1ccc2ccccc2c1 was tested, and the T/C [4] was 100 % of control, the T/C [5] was 100 % of control and the T/C (dose: 50.0 mg/kg/injection, schedule: Q04DX003 (ip), vehicle: saline) was 104 % of control. For the same molecule, the T/C [6] was 104 % of control and the T/C (dose: 100.0 mg/kg/injection, schedule: Q04DX003 (ip), vehicle: saline) was 100 % of control.

In the case of Cc1c[se]c(=S)s1, the T/C (dose: 25.0 mg/kg/injection, schedule: Q01DX009 (ip), vehicle: saline with Tween-80) is reported as 101 % of control, the T/C [1] is reported as 96 % of control and the T/C [2] is reported as 98 % of control.

With COc1cc(/C=N/NC(=O)c2cccs2)cc(OC)c1OC the T/C [7] was 90 % of control, the T/C (dose: 200.0 mg/kg/injection, schedule: Q04DX003 (ip), vehicle: saline with Tween-80) was 90 % of control and the T/C (dose: 400.0 mg/kg/injection, schedule: Q04DX003 (ip), vehicle: saline with Tween-80) was 100 % of control.

For Cc1ccc(S(=O)(=O)OC2CCC(C(C)(C)C)CC2Cl)cc1 (stereo not given), the T/C [8] was 105 % of control, the T/C [9] was 100 % of control and the T/C [10] was 110 % of control. For the same molecule, the T/C [11] was 86 % of control and the T/C [12] was 95 % of control.

For O=C(c1ccccc1)C1(Br)CCC1, the T/C (dose: 100.0 mg/kg/injection, schedule: Q01DX009 (ip), vehicle: saline sonified) was 91 % of control, the T/C (dose: 200.0 mg/kg/injection, schedule: Q01DX009 (ip), vehicle: saline sonified) was 100 % of control and the T/C (dose: 400.0 mg/kg/injection, schedule: Q01DX009 (ip), vehicle: saline sonified) was 95 % of control.

With O=[N+]([O-])c1ccc(/C=C/C=C/c2ccc(Cl)cc2Cl)cc1 the T/C [13] was 104 % of control, the T/C [8] was 113 % of control and the T/C [9] was 104 % of control. The T/C [10] was 90 % of control, the T/C [11] was 95 % of control and the T/C [14] was 91 % of control.

Cc1ccc(C2NC(=S)N3C(c4ccc(C)cc4)NC(=S)N23)cc1 (stereo not given) was tested, and the T/C [13] was 98 % of control, the T/C [8] was 111 % of control and the T/C [10] was 111 % of control. For the same molecule, the T/C [12] was 154 % of control, the T/C (dose: 400.0 mg/kg/injection, schedule: Q01DX009 (ip), vehicle: saline) was 112 % of control and the T/C (dose: 600.0 mg/kg/injection, schedule: Q01DX009 (ip), vehicle: saline) was 120 % of control.

With O=C(O)c1c(Cl)cc(Cl)c(-c2c(Cl)cc(Cl)c(C(=O)O)c2Cl)c1Cl the T/C [2] was 112 % of control, the T/C [3] was 108 % of control and the T/C [15] was 108 % of control.

For COc1cc2c(c3oc(=O)ccc13)C(=O)CC(C)(C)O2, the T/C (dose: 50.0 mg/kg/injection, schedule: Q01DX001 (ip), vehicle: saline) was 108 % of control, the T/C (dose: 100.0 mg/kg/injection, schedule: Q01DX001 (ip), vehicle: saline) was 100 % of control and the T/C (dose: 200.0 mg/kg/injection, schedule: Q01DX001 (ip), vehicle: saline) was 104 % of control.

With CCN(CC)c1nc(N(C)C)nc(N(C)C)n1 the T/C [1] was 105 % of control, the T/C [2] was 99 % of control and the T/C [3] was 104 % of control. The T/C [15] was 117 % of control.

For C=C(CC(N)=O)C(=O)O (tested in a mixture with another compound), the T/C (dose: 88.0 mg/kg/injection, schedule: Q01DX003 (ip), vehicle: saline) was 109 % of control and 113 % of control, the T/C (dose: 177.0 mg/kg/injection, schedule: Q01DX003 (ip), vehicle: saline) was 109 % of control and 122 % of control and the T/C (dose: 266.0 mg/kg/injection, schedule: Q01DX003 (ip), vehicle: saline) was 109 % of control and 122 % of control. For the same molecule, the T/C (dose: 400.0 mg/kg/injection, schedule: Q01DX003 (ip), vehicle: saline) was 118 % of control and 122 % of control and the T/C (dose: 600.0 mg/kg/injection, schedule: Q01DX003 (ip), vehicle: saline) was 118 % of control.

For O=NN(CCCl)C(=O)Nc1c[nH]c2ccccc12, the T/C [13] was 92 % of control, the T/C [8] was 107 % of control and the T/C [10] was 108 % of control. The T/C [12] was 117 % of control.

With O=S(=O)(F)c1cccc(C[P+](c2ccccc2)(c2ccccc2)c2ccccc2)c1 the T/C (dose: 5.5 mg/kg/injection, schedule: Q01DX009 (ip), vehicle: Klucel (hydroxypropylcellulose) (HPC)) was 118 % of control, the T/C (dose: 70.0 mg/kg/injection, schedule: Q04DX003 (ip), vehicle: Klucel (hydroxypropylcellulose) (HPC)) was 118 % of control and 120 % of control and the T/C (dose: 73.0 mg/kg/injection, schedule: Q04DX003 (ip), vehicle: Klucel (hydroxypropylcellulose) (HPC)) was 118 % of control. For the same molecule, the T/C (dose: 170.0 mg/kg/injection, schedule: Q04DX003 (ip), vehicle: Klucel (hydroxypropylcellulose) (HPC)) was 95 % of control and the T/C (dose: 255.0 mg/kg/injection, schedule: Q04DX003 (ip), vehicle: Klucel (hydroxypropylcellulose) (HPC)) was 108 % of control and 120 % of control.

In the case of COc1ccccc1NC(=O)Oc1ccc(-c2ccccc2)cc1Br, the T/C [9] is reported as 95 % of control, the T/C [11] is reported as 87 % of control and the T/C [14] is reported as 91 % of control.

For Cc1nccn1C[c-]1[c-][c-][c-][c-]1.[Fe].[c-]1[c-][c-][cH-][c-]1, the T/C (dose: 6.25 mg/kg/injection, schedule: Q01DX009 (ip), vehicle: saline) was 108 % of control, the T/C [16] was 99 % of control and the T/C [4] was 100 % of control.

In the case of CN(C)c1ccc(/C=N/NC(N)=S)nc1, the T/C (dose: 44.0 mg/kg/injection, schedule: Q04DX003 (ip), vehicle: saline with Tween-80) is reported as 159 % of control, the T/C (dose: 66.0 mg/kg/injection, schedule: Q04DX003 (ip), vehicle: saline with Tween-80) is reported as 150 % of control and 163 % of control and the T/C [7] is reported as 177 % of control. For the same molecule, the T/C (dose: 150.0 mg/kg/injection, schedule: Q04DX003 (ip), vehicle: saline with Tween-80) was 213 % of control.

In the case of O=C1NC(=O)C(c2ccccc2)(c2ccccc2)N1CCS, the T/C [16] is reported as 96 % of control and 104 % of control, the T/C [4] is reported as 99 % of control and 104 % of control and the T/C [5] is reported as 93 % of control. The T/C [6] was 89 % of control and 99 % of control and the T/C (dose: 200.0 mg/kg/injection, schedule: Q01DX009 (ip), vehicle: saline) was 112 % of control and 113 % of control.

For COC1C(OC(=O)c2ccc(C)[nH]2)C(O)C(Oc2ccc3c(O)c(NC(=O)c4c[nH]c(C(=O)Nc5c(O)c6ccc(OC7OC(C)(C)C(OC)C(OC(=O)c8ccc(C)[nH]8)C7O)c(C)c6oc5=O)c4C)c(=O)oc3c2C)OC1(C)C (stereo not given), the T/C [2] was 90 % of control, the T/C [3] was 109 % of control and the T/C [15] was 163 % of control.

With COC(=O)/C=C/c1c[nH]c2nccnc12 the T/C (dose: 25.0 mg/kg/injection, schedule: Q01DX009 (ip), vehicle: water) was 104 % of control, the T/C (dose: 50.0 mg/kg/injection, schedule: Q01DX009 (ip), vehicle: water) was 90 % of control and 112 % of control and the T/C (dose: 100.0 mg/kg/injection, schedule: Q01DX009 (ip), vehicle: water) was 97 % of control and 109 % of control. For the same molecule, the T/C (dose: 100.0 mg/kg/injection, schedule: Q04DX003 (ip), vehicle: water) was 86 % of control, the T/C (dose: 200.0 mg/kg/injection, schedule: Q01DX009 (ip), vehicle: water) was 115 % of control and the T/C (dose: 200.0 mg/kg/injection, schedule: Q04DX003 (ip), vehicle: water) was 102 % of control. The T/C (dose: 300.0 mg/kg/injection, schedule: Q01DX009 (ip), vehicle: water) was 106 % of control, the T/C (dose: 400.0 mg/kg/injection, schedule: Q01DX009 (ip), vehicle: water) was 93 % of control and the T/C (dose: 400.0 mg/kg/injection, schedule: Q04DX003 (ip), vehicle: water) was 102 % of control.

For Cc1cc(OCc2nc(N)nc(N)c2-c2ccc(Cl)c(Cl)c2)ccc1NS(=O)(=O)c1cccc(S(=O)(=O)F)c1, the T/C (dose: 45.0 mg/kg/injection, schedule: Q04DX003 (ip), vehicle: Klucel (hydroxypropylcellulose) (HPC)) was 109 % of control, the T/C (dose: 65.0 mg/kg/injection, schedule: Q04DX003 (ip), vehicle: Klucel (hydroxypropylcellulose) (HPC)) was 118 % of control and the T/C [9] was 122 % of control. The T/C (dose: 264.0 mg/kg/injection, schedule: Q04DX003 (ip), vehicle: Klucel (hydroxypropylcellulose) (HPC)) was 175 % of control and the T/C [14] was 170 % of control.

COc1ccc(/C=C(/C)[N+](=O)[O-])cc1OC was tested, and the T/C (dose: 50.0 mg/kg/injection, schedule: Q01DX001 (ip), vehicle: saline with Tween-80) was 109 % of control, the T/C (dose: 100.0 mg/kg/injection, schedule: Q01DX001 (ip), vehicle: saline with Tween-80) was 113 % of control and the T/C [9] was 104 % of control. The T/C (dose: 200.0 mg/kg/injection, schedule: Q01DX001 (ip), vehicle: saline with Tween-80) was 118 % of control and the T/C [11] was 109 % of control.
